Test results: article PMC9798004 (Frontiers in Psychiatry, 2022)
Where “and” joins values, the source holds several entries; their conditions need not be identical. Identical values can stand only once.

What was measured:
Type in all cases: cell-based
CHRM2 = biological target: T1, CHRM2 (Homo sapiens, UniProt P08172); assay: PathHunter β-arrestin assay; details: control agonist
T1 sequence (P08172 1-466): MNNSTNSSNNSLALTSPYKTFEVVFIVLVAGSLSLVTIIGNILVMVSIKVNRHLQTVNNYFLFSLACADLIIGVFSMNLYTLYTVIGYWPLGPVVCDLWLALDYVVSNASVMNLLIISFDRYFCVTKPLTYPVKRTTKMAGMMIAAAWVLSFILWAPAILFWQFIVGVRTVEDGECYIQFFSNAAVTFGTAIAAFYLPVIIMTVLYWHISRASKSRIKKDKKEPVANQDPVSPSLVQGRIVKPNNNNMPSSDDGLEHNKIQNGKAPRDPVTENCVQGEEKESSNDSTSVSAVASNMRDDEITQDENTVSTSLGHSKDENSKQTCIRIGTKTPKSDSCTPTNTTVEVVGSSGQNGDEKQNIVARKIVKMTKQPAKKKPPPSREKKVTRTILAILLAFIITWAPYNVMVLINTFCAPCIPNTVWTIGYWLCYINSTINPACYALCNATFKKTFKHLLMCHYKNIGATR

CHRM3 = CHRM3 (Homo sapiens, UniProt P20309)
CHRM4 = biological target: T2, CHRM4 (Homo sapiens, UniProt P08173); assay: PathHunter β-arrestin assay; details: screen, control agonist; CHO, 37C, 2HR
T2 construct: purchased Eurofins DiscoverX (PathHunter gpcrMAX)

CHRM5 = biological target: T3, CHRM5 (Homo sapiens, UniProt P08912); assay: PathHunter β-arrestin assay; details: screen, control agonist; CHO, 37C, 2HR
T3 construct: purchased Eurofins DiscoverX (PathHunter gpcrMAX)

CNR1 (CB1) = biological target: T4, CNR1 (CB1) (Homo sapiens, UniProt P21554); assay: PathHunter β-arrestin assay; details: screen, control agonist; CHO, 37C, 2HR
T4 construct: host or cells: CHO

CNR2 = biological target: T5, CNR2 (Homo sapiens, UniProt P34972); assay: PathHunter β-arrestin assay; details: screen, control agonist; CHO, RT, 2HR
T5 construct: purchased Eurofins DiscoverX (PathHunter gpcrMAX)

[1] = system: AtT20 cells wildtype (WT); assay: LDH release cytotoxicity assay; details: 30 μM
Experimental: AtT20 cells expressing either human CB1 (hCB1) or CB2 (hCB2) receptors or wildtype (WT) were grown to confluence in T75 cm^2 flasks in Dulbecco's modified eagle medium containing 10% fetal bovine serum, 100 U penicillin/streptomycin, and 80 μg/mL hygromicyin (Sigma-Aldrich/Merck; Castle Hill, NSW, Australia). Cells were plated in 96-well-microplates at 30,000 cells per well and allowed to adhere overnight in 5% CO2. The following morning, cells were treated with either vehicle (0.1% DMSO; negative control), 30 μM Δ^9-THC, or 30 μM AMB-FUBINACA. At 1 or 6 h, the amount of lactate dehydrogenase in the cell media was tested, and compared with positive control (lysed cells) as per manufacturer's instructions (Dojindo Molecular Technologies, Inc.; Rockville, MD, USA), with readings performed on a Clariostar Plus plate reader (BMG Labtech, Mornington, VIC, Australia). Experiments were performed in triplicate. In order to measure any accumulating LDH, media was not changed after initial incubation. Data is represented as means ± S.E.M. A two-way ANOVA with was performed on the data at each time point, with Tukey's multiple comparison test (α = 0.05). A p < 0.05 was considered statistically significant.

CRTH2 = biological target: T6, CRTH2 (Homo sapiens, UniProt Q9Y5Y4); assay: PathHunter β-arrestin assay; details: screen, control agonist; U2OS, RT, 2HR
T6 construct: purchased Eurofins DiscoverX (PathHunter gpcrMAX)

CCR2 = biological target: T7, CCR2 (Homo sapiens, UniProt P41597); assay: PathHunter β-arrestin assay; details: screen, control agonist; CHO, 37C, 2HR
T7 construct: purchased Eurofins DiscoverX (PathHunter gpcrMAX)

CCR1 = biological target: T8, CCR1 (Homo sapiens, UniProt P32246); assay: PathHunter β-arrestin assay; details: screen, control agonist; CHO, 37C, 2HR
T8 construct: purchased Eurofins DiscoverX (PathHunter gpcrMAX)
T8 sequence (P32246 1-355): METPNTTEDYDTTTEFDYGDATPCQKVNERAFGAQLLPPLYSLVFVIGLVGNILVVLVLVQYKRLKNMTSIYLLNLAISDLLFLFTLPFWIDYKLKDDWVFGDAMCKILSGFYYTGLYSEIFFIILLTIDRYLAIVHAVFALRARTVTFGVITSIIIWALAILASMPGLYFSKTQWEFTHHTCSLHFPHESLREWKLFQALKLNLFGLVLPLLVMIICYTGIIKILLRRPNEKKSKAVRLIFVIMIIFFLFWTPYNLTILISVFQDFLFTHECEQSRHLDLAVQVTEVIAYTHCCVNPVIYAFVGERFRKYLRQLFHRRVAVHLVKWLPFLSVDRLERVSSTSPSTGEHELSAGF

CCR5 = biological target: T9, CCR5 (Homo sapiens, UniProt P51681); assay: PathHunter β-arrestin assay; details: screen, control agonist; CHO, 37C, 2HR
T9 construct: purchased Eurofins DiscoverX (PathHunter gpcrMAX)

CCR3 = biological target: T10, CCR3 (Homo sapiens, UniProt P51677); assay: PathHunter β-arrestin assay; details: screen, control agonist; CHO, 37C, 2HR
T10 construct: purchased Eurofins DiscoverX (PathHunter gpcrMAX)
T10 sequence (P51677 1-355): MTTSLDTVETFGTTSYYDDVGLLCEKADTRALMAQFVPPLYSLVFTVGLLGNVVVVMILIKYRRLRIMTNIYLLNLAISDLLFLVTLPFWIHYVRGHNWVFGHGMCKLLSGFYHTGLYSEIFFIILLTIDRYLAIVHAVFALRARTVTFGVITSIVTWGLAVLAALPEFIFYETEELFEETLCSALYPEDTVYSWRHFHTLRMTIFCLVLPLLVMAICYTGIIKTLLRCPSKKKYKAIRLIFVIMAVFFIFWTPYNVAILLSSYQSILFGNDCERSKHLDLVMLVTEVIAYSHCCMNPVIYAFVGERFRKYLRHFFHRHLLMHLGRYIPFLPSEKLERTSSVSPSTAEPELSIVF

Chain of CHRM3 (P20309 whole entry): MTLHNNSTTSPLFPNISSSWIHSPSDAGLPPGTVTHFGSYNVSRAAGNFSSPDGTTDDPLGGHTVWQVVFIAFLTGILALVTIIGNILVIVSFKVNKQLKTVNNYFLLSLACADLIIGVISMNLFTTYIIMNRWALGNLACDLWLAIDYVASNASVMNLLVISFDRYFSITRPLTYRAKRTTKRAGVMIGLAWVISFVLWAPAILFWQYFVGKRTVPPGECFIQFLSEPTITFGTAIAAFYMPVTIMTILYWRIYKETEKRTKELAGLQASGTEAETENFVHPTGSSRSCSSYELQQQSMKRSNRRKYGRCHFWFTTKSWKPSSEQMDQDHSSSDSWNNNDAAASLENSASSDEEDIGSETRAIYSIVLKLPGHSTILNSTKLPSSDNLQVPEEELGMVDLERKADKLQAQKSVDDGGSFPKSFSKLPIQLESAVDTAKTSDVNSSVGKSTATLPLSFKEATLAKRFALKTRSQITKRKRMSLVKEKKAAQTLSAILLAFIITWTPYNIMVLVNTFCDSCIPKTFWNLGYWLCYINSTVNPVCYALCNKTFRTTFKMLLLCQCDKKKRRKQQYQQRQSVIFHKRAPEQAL
T7 sequence (P41597 whole entry): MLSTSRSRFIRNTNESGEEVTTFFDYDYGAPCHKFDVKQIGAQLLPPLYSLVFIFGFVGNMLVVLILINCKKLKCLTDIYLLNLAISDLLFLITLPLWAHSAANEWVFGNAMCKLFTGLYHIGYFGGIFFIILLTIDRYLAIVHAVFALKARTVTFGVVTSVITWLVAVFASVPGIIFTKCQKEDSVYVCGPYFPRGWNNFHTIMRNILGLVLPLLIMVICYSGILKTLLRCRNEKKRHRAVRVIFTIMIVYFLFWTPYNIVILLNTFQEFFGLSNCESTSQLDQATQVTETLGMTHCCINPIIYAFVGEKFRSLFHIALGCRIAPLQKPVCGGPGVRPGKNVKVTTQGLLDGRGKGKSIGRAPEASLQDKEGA
T5 sequence (P34972 whole entry): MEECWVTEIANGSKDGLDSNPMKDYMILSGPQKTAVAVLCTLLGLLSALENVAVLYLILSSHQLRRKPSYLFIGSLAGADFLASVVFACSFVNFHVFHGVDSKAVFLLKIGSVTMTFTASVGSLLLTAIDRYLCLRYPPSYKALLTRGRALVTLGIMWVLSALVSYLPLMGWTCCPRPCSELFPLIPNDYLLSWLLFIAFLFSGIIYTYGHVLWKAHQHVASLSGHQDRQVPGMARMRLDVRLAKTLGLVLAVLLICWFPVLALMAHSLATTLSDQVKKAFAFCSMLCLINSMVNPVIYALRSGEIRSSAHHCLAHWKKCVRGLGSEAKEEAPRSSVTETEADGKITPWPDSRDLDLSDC
T9 sequence (P51681 whole entry): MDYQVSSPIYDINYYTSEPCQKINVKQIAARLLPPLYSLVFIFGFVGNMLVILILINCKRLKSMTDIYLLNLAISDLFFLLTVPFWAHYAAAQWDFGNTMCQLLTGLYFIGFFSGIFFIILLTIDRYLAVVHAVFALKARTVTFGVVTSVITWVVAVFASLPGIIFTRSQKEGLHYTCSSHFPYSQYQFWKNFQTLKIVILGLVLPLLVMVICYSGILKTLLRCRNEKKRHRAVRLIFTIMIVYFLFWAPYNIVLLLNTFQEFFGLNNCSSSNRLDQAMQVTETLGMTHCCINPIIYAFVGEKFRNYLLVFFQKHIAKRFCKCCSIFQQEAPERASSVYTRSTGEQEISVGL
T2 sequence (P08173 whole entry): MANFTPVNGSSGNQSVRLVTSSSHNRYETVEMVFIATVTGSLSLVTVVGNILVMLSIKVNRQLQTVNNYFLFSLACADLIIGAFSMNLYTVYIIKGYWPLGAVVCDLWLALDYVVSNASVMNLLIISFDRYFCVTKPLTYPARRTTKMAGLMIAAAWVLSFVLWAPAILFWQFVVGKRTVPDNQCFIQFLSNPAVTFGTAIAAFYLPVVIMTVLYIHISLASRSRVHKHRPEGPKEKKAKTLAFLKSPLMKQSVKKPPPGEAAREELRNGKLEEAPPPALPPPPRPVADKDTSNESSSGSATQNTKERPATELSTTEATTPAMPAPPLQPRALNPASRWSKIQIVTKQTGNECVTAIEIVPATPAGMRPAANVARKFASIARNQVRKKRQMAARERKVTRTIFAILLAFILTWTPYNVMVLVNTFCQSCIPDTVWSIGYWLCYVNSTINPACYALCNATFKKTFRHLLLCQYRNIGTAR
T6 sequence (Q9Y5Y4 whole entry): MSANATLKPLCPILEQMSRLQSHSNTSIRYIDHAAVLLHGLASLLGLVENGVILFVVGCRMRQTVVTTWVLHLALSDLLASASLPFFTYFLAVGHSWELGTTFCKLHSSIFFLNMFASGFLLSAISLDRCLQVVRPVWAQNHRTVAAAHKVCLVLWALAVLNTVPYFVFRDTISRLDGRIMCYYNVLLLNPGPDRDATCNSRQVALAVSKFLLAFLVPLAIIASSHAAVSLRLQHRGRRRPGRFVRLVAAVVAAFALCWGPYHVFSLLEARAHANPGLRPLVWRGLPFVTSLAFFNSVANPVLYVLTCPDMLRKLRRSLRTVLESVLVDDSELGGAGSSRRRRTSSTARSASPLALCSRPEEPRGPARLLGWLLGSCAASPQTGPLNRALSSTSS
T4 sequence (P21554 whole entry): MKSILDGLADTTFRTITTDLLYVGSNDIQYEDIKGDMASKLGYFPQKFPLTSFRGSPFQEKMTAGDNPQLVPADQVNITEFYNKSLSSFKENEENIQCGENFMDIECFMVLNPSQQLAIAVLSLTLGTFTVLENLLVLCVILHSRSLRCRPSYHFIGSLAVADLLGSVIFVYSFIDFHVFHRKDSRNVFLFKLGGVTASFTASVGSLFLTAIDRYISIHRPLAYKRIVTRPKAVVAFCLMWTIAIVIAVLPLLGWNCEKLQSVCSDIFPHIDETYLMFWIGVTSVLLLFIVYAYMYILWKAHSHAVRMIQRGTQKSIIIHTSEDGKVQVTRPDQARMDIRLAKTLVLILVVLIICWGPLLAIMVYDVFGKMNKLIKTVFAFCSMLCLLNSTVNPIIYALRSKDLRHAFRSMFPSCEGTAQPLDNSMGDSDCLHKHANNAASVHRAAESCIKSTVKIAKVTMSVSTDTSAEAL
T3 sequence (P08912 whole entry): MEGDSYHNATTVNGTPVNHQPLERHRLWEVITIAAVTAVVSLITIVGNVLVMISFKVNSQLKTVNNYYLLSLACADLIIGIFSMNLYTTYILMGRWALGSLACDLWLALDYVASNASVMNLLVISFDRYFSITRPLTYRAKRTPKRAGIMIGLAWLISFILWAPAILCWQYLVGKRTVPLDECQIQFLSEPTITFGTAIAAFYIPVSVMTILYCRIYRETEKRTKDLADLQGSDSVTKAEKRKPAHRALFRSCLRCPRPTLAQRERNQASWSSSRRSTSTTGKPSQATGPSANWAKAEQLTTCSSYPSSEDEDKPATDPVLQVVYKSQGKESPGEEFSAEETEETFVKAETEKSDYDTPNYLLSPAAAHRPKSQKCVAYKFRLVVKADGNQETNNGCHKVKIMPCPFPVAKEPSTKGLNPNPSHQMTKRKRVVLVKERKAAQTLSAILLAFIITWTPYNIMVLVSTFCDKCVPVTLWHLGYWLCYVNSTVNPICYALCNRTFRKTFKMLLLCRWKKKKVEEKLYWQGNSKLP

In the case of `CC(=O)OCC[N+](C)(C)C` [Acetylcholine], the EC80 (CHRM2; follow-up concentration-response assays) was 24817 nM, the EC80 (CHRM2; screen, CHO, 37C, 2HR) was 24800 nM and the EC80 (CHRM3) was 3540 nM and 3539.3 nM. It also gave an EC80 (CHRM4) of 3910 nM and an EC80 (CHRM5) of 1030 nM.

For `CCCCCCC(C)(C)c1ccc([C@@H]2C[C@H](O)CC[C@H]2CCCO)c(O)c1` [CP55940], the EC80 (CNR1 (CB1)) was 20.3 nM, the EC80 (CNR2) was 4.12 nM and the “LDH in cell media, normalized to total LDH” value ([1]; 1 h) was 28.90 ± 7.81%. For the same compound, the “LDH increase compared with vehicle” value ([1]; 6 h) was “no effect was observed”.

In the case of `CCCCC[C@H](O)/C=C/[C@H]1C(=O)C[C@H](O)[C@@H]1C/C=C\CCCC(=O)O` [PGD2], the EC80 (CRTH2) was 23.8 nM.

CCL2: control agonist was tested, and the EC80 (CCR2) was 6.98 nM.

In the case of CCL3: control agonist, the EC80 (CCR1) was 2.53 nM and the EC80 (CCR5) was 10.1 nM.

In the case of CCL13: control agonist, the EC80 (CCR3) was 46.4 nM.
